Our source for the Kd and minimal effective concentration values is US20250289812A1, “COMPOUND FOR TREATING THROMBOTIC DISEASES” (SHANGHAI INSTITUTE OF MATERIA MEDICA, CHINESE ACADEMY OF …, priority 2020, published 2025).

Test [1] deals with Src kinase SH3 domain protein (Homo sapiens (Human), UniProt P12931). As to the kind of experiment: Surface plasmon resonance (SPR) determination of dissociation constants with SH3 protein. Format: binding. The following applies: SH3 protein coupled to CM5 chip. As to the method:
1. Experimental method: Surface plasmon resonance test was carried out on BIACORE T200 instrument (GE Company). Fresh purified grade Src kinase SH3 domain protein (concentration 2 mg/ml) was diluted to 0.1 mg/ml with 10 mM CH3COONa (pH 4.2) and then SH3 protein was coupled to the CM5 chip by standard amino coupling methods. The compounds of the invention were diluted in a gradient using a buffer solution (20 mM Tris-HCl, PH 8.0, 100 mM NaCl) for 60 seconds and dissociated for 120 seconds at a flow rate of […], respectively. The changes in response values over time were recorded and analyzed by the BIA Evaluation Software (GE Healthcare) program to obtain the dissociation constants KD for the different compounds with SH3 protein.
2. Experimental results and conclusions: The dissociation constants KD of different compounds and SH3 protein were described in Table 2, and the surface plasmon resonance (SPR) experimental results of some compounds were shown in FIG. 1.

Test [2] relates to platelets on solid phase fibrinogen. As to the kind of experiment: Effect of compound on platelet stretching on solid phase fibrinogen. Format: cell-based. The following applies: 1 h, washed platelets, incubated 60 min at 37° C., read-out: Concentration range for compounds that inhibit platelet stretching on fibrinogen. As to the method:
1. Experimental method: Firstly, 50 μl fibrinogen (0.1M, diluted with pH 8.3 sodium bicarbonate, 20 μg/ml) was added to 96-well plate, and coated overnight at 4° C. After being washed by PBS for 3 times in the morning, sealed with bovine serum albumin (20 mg/ml) at 37° C. for 60 min, then 100 μl of washed platelet suspension was taken, and added into compounds in each group to make the final concentration 250 μM, and incubated at 37° C. for 60 min. 50 μl of incubated platelets were added to 96-well plate, adhered in a temperature box at 37° C. for 60 min, unadhered platelets were removed by PBS washing for 3 times, and adhered platelets were stably fixed with 4% paraformaldehyde, and washed with PBS for 3 times. Then the platelet membrane was perforated with 0.5% Triton X-100, and then the platelet was stained with 0.5 μg/ml phalloidin-rhodamine for 60 min at 37° C. and washed 3 times (10 min each) with PBS.
2. Experimental results and conclusions: The concentration of different compounds on platelet stretching on fibrinogen was shown in Table 3, and the inhibitory effect of some compounds on platelet stretching was shown in FIG. 2.

Structures are written as SMILES. A value given as a limit tells only on which side of the number the result lay.

Chain of Src kinase SH3 domain protein (P12931 whole entry, looked up, the tested form may be a part): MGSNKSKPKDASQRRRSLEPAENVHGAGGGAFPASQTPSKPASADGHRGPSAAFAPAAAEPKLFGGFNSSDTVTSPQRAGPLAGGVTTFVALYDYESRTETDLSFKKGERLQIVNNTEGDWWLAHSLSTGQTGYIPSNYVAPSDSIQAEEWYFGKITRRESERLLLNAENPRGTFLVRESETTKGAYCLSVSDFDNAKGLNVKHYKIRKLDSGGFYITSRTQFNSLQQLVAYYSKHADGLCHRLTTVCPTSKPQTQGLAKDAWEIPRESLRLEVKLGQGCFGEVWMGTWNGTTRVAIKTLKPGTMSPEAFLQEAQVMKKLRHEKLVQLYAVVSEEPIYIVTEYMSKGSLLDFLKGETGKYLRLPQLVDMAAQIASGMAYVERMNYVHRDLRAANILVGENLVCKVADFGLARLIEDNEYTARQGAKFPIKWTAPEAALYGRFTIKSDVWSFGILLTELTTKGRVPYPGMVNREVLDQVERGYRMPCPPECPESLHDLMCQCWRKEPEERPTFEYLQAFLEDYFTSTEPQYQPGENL

Broadly, the Kd is the concentration at which binding is half-saturated. A lower Kd goes with tighter binding. As for `CCOC(=O)c1c(CNC(=N)N)n(C)c2cc(-c3cccc4ccccc34)c(C3CC3)cc12` [SYY-C112], in test [1], the Kd is below 1000 nM. The minimal effective concentration in test [2] lay within 10 to 100 µM.
On the same counts, the results for `CCOC(=O)c1c(CNC(=N)N)n(C)c2cc(-c3cccc4ccccc34)c(C3CCCC3)cc12` [SYY-C113] are below 1000 nM and 10 to 100 µM.
As to `CCOC(=O)c1c(CNC(=N)N)n(C)c2cc(OC)c(-c3cccc4ccccc34)cc12` [SYY-C114], the Kd in test [1] lay in the range of 10000 to 100000 nM. Further, in test [2], the minimal effective concentration is 10 to 100 µM.
The corresponding values for `CCOC(=O)c1c(CNC(=N)N)n(C)c2cc(OC3CCCC3)c(-c3cccc4ccccc34)cc12` [SYY-C115] are below 1000 nM and 10 to 100 µM.
With `CCOC(=O)c1c(CNC(=N)N)n(C)c2cc(C3=CCCC3)c(-c3cccc4ccccc34)cc12` [SYY-C116], in test [1], the Kd is below 1000 nM. Besides, the minimal effective concentration in test [2] lay within 10 to 100 µM.
On to `CCOC(=O)c1c(CNC(=N)N)n(C)c2cc(C3CCCC3)c(-c3cccc4ccccc34)cc12` [SYY-C117], for which the Kd in test [1] lay within 10000 to 100000 nM. In addition, in test [2], the minimal effective concentration fell in the range of 100 to 250 µM.
`CCOC(=O)c1c(CNC(=N)N)n(C)c2cc(Cl)c(-c3cccc4ccccc34)cc12` [SYY-C118]: in test [1], the Kd is below 1000 nM. For the same molecule, in test [2], the minimal effective concentration fell in the range of 10 to 100 µM.
On to `CCOC(=O)c1c(CNC(=N)N)n(C)c2cc(Br)c(-c3cccc4ccccc34)cc12` [SYY-C119], for which the Kd in test [1] was below 1000 nM. Also, the minimal effective concentration in test [2] was in the range of 10 to 100 µM.
The corresponding values for `CCOC(=O)c1c(CNC(=N)N)n(C)c2cc(C3CC3)c(-c3cccc4ccccc34)cc12` [SYY-C120] are below 1000 nM and 10 to 100 µM.
For `CCOC(=O)c1c(CNC(=N)N)sc2cc(-c3cccc4ccccc34)c(C3CCCC3)cc12` [SYY-C121], the dissociation constant Kd in test [1] lay within 1000 to 10000 nM. The minimal effective concentration in test [2] was 100 to 250 µM.
Regarding `CCOC(=O)c1c(CNC(=N)N)sc2cc(-c3cccc4ccccc34)c(C3CCCCC3)cc12` [SYY-C122], in test [1], the Kd is below 1000 nM. In addition, the minimal effective concentration in test [2] was in the range of 10 to 100 µM.
As for `CCOC(=O)c1c(CNC(=N)N)sc2cc(-c3cccc4ccccc34)c(C3=CCCC3)cc12` [SYY-C123], in test [1], the Kd lay in the range of 10000 to 100000 nM. The minimal effective concentration in test [2] fell in the range of 100 to 250 µM.
On the same counts, the results for `CCOC(=O)c1c(CNC(=N)N)sc2cc(-c3cccc4ccccc34)c(C3=CCCCC3)cc12` [SYY-C124] are below 1000 nM and 10 to 100 µM.
`CCOC(=O)c1c(CNC(=N)N)sc2cc(-c3cccc4ccccc34)c(OC)cc12` [SYY-C125]: the Kd in test [1] was below 1000 nM. Further, in test [2], the minimal effective concentration lay in the range of 10 to 100 µM.
The corresponding values for `CCOC(=O)c1c(CNC(=N)N)sc2cc(-c3cccc4ccccc34)c(OC3CCCC3)cc12` [SYY-C126] are below 1000 nM and 10 to 100 µM.
As for `CCOC(=O)c1c(CNC(=N)N)sc2cc(-c3cccc4ccccc34)c(OC3CCCCC3)cc12` [SYY-C127], the Kd in test [1] was below 1000 nM. The minimal effective concentration in test [2] lay within 10 to 100 µM.
In test [1], `CCOC(=O)c1c(CNC(=N)N)sc2cc(-c3cccc4ccccc34)c(Oc3ccccc3)cc12` [SYY-C128] gave a dissociation constant Kd of 10000 to 100000 nM. In test [2], the minimal effective concentration fell in the range of 100 to 250 µM.
The corresponding values for `CCOC(=O)c1c(CNC(=N)N)sc2cc(-c3cccc4ccccc34)c(Oc3ccncc3)cc12` [SYY-C129] are below 1000 nM and 10 to 100 µM.
The corresponding values for `CCOC(=O)c1c(CNC(=N)N)sc2cc(-c3cccc4ccccc34)c(C3=CCCc4ccccc43)cc12` [SYY-C130] are 10000 to 100000 nM and 100 to 250 µM.
The corresponding values for `CCOC(=O)c1c(CNC(=N)N)sc2cc(-c3cccc4ccccc34)c(C3CCCc4ccccc43)cc12` (stereo not shown) [SYY-C131] are 10000 to 100000 nM and 100 to 250 µM.
